According to US20260015311A1, “AMINO LIPID COMPOUND, PREPARATION METHOD THEREFOR, AND USE THEREOF” (SHENZHEN SHENXIN BIOTECHNOLOGY CO., LTD., priority 2022, published 2026):
One block for each compound: values may come before it.

Key:
Fluc mRNA [1] = test: Activity of lipid nanoparticles of formulation method 2, Fluc mRNA by intramuscular administration; format: in vivo, BALB/c mice
Experimental: (§1) The formulation method was the same as the formulation method 1, except that the molar ratio of the amino lipid compounds to DSPC, cholesterol and PEG2000-DMG was 50:10:38.5:1.5.
(§2) 9 mice were assigned randomly to each group and injected with the lipid nanoparticles at a dosage of 0.5 mg/kg by three administration routes, i.e., subcutaneous, intramuscular and tail vein injection (three mice for each administration route). After 12 hours, D-luciferin potassium salt (200 μL, 10 mg/mL) was injected into each mouse through the tail vein. After 10 minutes, the total fluorescence intensity of each mouse was observed on a living imaging system (IVIS-200, Xenogen) and taken photographs for record. The expression intensities of Fluc mRNA delivered by representative amino lipid compounds through the three administration routes are shown in Table 2-4. MC3 was used as a control and SM102 was used as a comparative compound.
Preparation of Lipid Nanoparticles: LNPs were Prepared Using the Formulation Method 2 for Intramuscular Administration.
The measurement method was the same as that of Test Example 1.

Fluc mRNA [2] = test: In vivo delivery of luciferase mRNA (Fluc mRNA) by lipid nanoparticles, living imaging; design: species or system BALB/c mice; settings: after 12 hours, total fluorescence
Experimental: (§3) The amino lipid compounds of the present disclosure were mixed with DOPE, cholesterol, and PEG2000-DMG in a molar ratio of 45:10:42.5:2.5 and dissolved in absolute ethanol. By using a microinjection pump, the resultant ethanol solution and a sodium acetate solution (50 mM, pH=4.0) were mixed in a ratio of 1:3 in a microfluidic chip to prepare a crude solution of lipid nanoparticles, which were then dialyzed in 1×PBS at a controlled temperature of 4° C. for 6 h using a dialysis box (Fisher, MWCO 20,000), and filtered through a 0.22 μm microporous filter membrane before use.
as §1
The lipid nanoparticles prepared according to the above formulation method 1 or 2 were used in the biological experiments below for evaluating the performances of in vivo delivery of luciferase mRNA (Fluc mRNA). For the lipid nanoparticles obtained in the formulation method 1, the mass ratio of the amino lipid compounds to the luciferase mRNA was about 10:1, and the lipid nanoparticles were administered subcutaneously; and the lipid nanoparticles obtained in the formulation method 2 were administered by tail vein and intramuscular injection.
6-week-old female BALB/c mice weighed about 20 g were selected and fed in a SPF-grade feeding room. Animal tests were conducted strictly according to the guidelines of National Health institutions and the requirements of animal ethics.
as §2

[3] = Stability of lipid nanoparticles at 25° C., DLS particle size and PDI; format: physicochemical
Experimental: as §3
(§4) Preparation of Lipid Nanoparticles: The Formulation Method 1 was Used to Prepare LNPs for Subcutaneous Administration.
Characterization of lipid nanoparticles: The particle size and PDI of the prepared lipid nanoparticles were measured by Nano-ZSZEN 3600 (Malvern). 40 μL of the LNP solution was taken for particle size measurement with circulation for three times, 30 seconds for each circulation.
(§5) The particle size measurements were carried out on the day of preparation (week 0), and after one week (week 1), two weeks (week 2), and four weeks (week 4) of storage at 25° C., and the expression intensities of Fluc mRNA delivered by subcutaneous administration were determined on the day of preparation (week 0) and after four weeks (week 4).

Fluc mRNA [4] = test: Stability of lipid nanoparticles at 25° C., subcutaneous expression of Fluc mRNA; format: in vivo, mice
Experimental: as §3, §2, §4, §5

[5] = intramuscular injection, formulation method 2, 0.5 mg/kg
[6] = subcutaneous administration, formulation method 1, 0.5 mg/kg
[7] = tail vein administration, formulation method 2, 0.5 mg/kg

SMILES: CCCCCCCCC(CCCCCC)OC(=O)CCCCCN(CCCCCC(=O)OC(CCCCCC)CCCCCCCC)C1CCCCC1O (stereo not shown) [Comparative compound 4]
Fluorescence intensity (expression intensity of Fluc mRNA) (Fluc mRNA [1]): 1.3E + 05

SMILES: CCCCCCCCCCCOC(=O)CCCCCCCN(CCCCCCCC(=O)OC(CCCCCCCC)CCCCCCCC)C1CCCC(C#N)C1 (stereo not shown) [Compound 17]
Fluorescence intensity (expression intensity of Fluc mRNA) (Fluc mRNA [2]; [5]): 6.2E + 06

particle size change after four weeks of storage ([3]; 25° C., week 4 versus week 0): did not increase significantly
particle size ([3]; preparation day (week 0)): about 100 nm
Z-Average ([3]; week 0 (day of preparation)): 110 nm·days
PDI ([3]; week 1, storage at 25° C.): 0.05
Z-Average ([3]; week 1, storage at 25° C.): 110 nm·days
PDI ([3]; week 2, storage at 25° C.): 0.04
Z-Average ([3]; week 2, storage at 25° C.): 125 nm·days
Z-Average ([3]; week 4, storage at 25° C.): 125 nm·days
SMILES: CCCCCCCCCOC(=O)CCCCCCCN(CCCCCCCC(=O)OC(CCCCCCCC)CCCCCCCC)C1CCCC(O)C1 (stereo not shown) [Compound 6]
Fluorescence intensity (expression intensity of Fluc mRNA) (Fluc mRNA [2]; [5]): 1.2E + 08
Fluorescence intensity (expression intensity of Fluc mRNA) (Fluc mRNA [2]; [6]): 3.7E + 08
Fluorescence intensity (expression intensity of Fluc mRNA) (Fluc mRNA [2]; [7]): 1.7E + 08
Fluc expression change after four weeks (Fluc mRNA [4]; 25° C., week 4 versus week 0): did not decrease significantly
Fluc Expression intensities (Fluc mRNA [4]; week 0, subcutaneous administration): 3.7E+08
Fluc Expression intensities (Fluc mRNA [4]; week 4, storage at 25° C., subcutaneous administration): 3.6E+08

SMILES: CCCCCCCCCOC(=O)CCCCCCCN(CCCCCCCC(=O)OC(CCCCCCCC)CCCCCCCC)C1CCCC(C(=O)NCCCC)C1 (stereo not shown) [Compound 21]
Fluorescence intensity (expression intensity of Fluc mRNA) (Fluc mRNA [2]; [6]): 1.1E + 06

SMILES: CCCCCCCCCCCOC(=O)CCCCCN(CCCCCCCC(=O)OC(CCCCCCCC)CCCCCCCC)C1CCC(O)CC1 (stereo not shown) [Comparative compound 7]
Fluorescence intensity (expression intensity of Fluc mRNA) (Fluc mRNA [1]): 4.5E + 06

SMILES: CCCCCCCCCCCOC(=O)CCCCCN(CCCCCCCC(=O)OC(CCCCCCCC)CCCCCCCC)C1CCCCC1O (stereo not shown) [Comparative compound 3]
Fluorescence intensity (expression intensity of Fluc mRNA) (Fluc mRNA [1]): 2.9E + 05

SMILES: CCCCC/C=C\C/C=C\CCCCCCCCOC(=O)CCCCCCCN(CCCCCCOC(=O)C(CCCCCC)CCCCCCCC)C1CCCC(O)C1 (stereo not shown) [Compound 12]
Fluorescence intensity (expression intensity of Fluc mRNA) (Fluc mRNA [2]; [6]): 4.2E + 06
Fluorescence intensity (expression intensity of Fluc mRNA) (Fluc mRNA [2]; [7]): 6.2E + 06

SMILES: CCCCCCCCCOC(=O)CCCCCCCN(CCCCCCCC(=O)OC(CCCCCCCC)CCCCCCCC)C1CC(O)C1 (stereo not shown) [Compound 1]
Fluorescence intensity (expression intensity of Fluc mRNA) (Fluc mRNA [2]; [6]): 2.7E + 07

SMILES: CCCCCCCCCOC(=O)CCCCCCCN(CCCCCCCC(=O)OC(CCCCCCCC)CCCCCCCC)C1CCC(O)CC1 (stereo not shown) [Comparative compound 6]
Fluorescence intensity (expression intensity of Fluc mRNA) (Fluc mRNA [1]): 1.9E + 07
Fluorescence intensity (expression intensity of Fluc mRNA) (Fluc mRNA [1]; listed as comparative compound 6): 1.9E+07

SMILES: CCCCCCCCCOC(=O)CCCCCCCN(CCCCCCCC(=O)OC(CCCCCCCC)CCCCCCCC)C1CCC(O)C1 (stereo not shown) [Compound 4]
Fluorescence intensity (expression intensity of Fluc mRNA) (Fluc mRNA [1]): 6.7E + 06
